Results reported in ChEMBL document CHEMBL3044753, “Polyamines May Modulate Both G Protein-Coupled Receptors and G Proteins” (Med Chem Res, 2004).
Activity calls are given as the source filed them. The calls are words filed in the database; no cut-off is given here.

Experiments:
Right cardiac atrium [1] = experiment: Negative […] activity in electrically-paced Cavia porcellus (guinea pig) right atrium assessed as effect on rate measured immediately by isometric transducer analysis in presence of benzalkonium/prazosin; assay type: functional, tissue-based
Right cardiac atrium [2] = experiment: Negative ionotropic activity in electrically-paced Cavia porcellus (guinea pig) right atrium measured immediately by isometric transducer analysis in presence of methoctramine; assay type: functional, tissue-based

COc1ccccc1CN1CCC(C2CCN(C(=O)CCCCCCC(=O)N3CCC(C4CCN(Cc5ccccc5OC)CC4)CC3)CC2)CC1 [PIPERTRAMINE AMIDE]
EC50 (Right cardiac atrium [1]): 1.51 nM | Activity (Right cardiac atrium [2]): inactive
